Laboratory results taken from patent US7803930B2, “Antisense modulation of apolipoprotein B-expression” (Isis Pharmaceuticals, Inc., priority 2002, dated 2010).
In the oligonucleotide strings, read from the 5' end, every base follows the letter of its sugar. An asterisk marks phosphorothioate; unmarked linkages are phosphodiester. Other units and linkages are bracketed, terminal groups are in braces. A string of capitals states the bases alone. e = 2'-O-(2-methoxyethyl) (MOE); [5mC] = 5-methylcytosine; d = 2'-deoxy (DNA)

Key:
[1] = tested on: apolipoprotein B protein; experiment: Apolipoprotein B protein secreted from primary human hepatocytes, ELISA; format: cell-based
Procedure: Oligonucleotides were introduced into cells through LIPOFECTIN-mediated transfection as described by other examples herein. Cells were harvested both 24 and 48 hours after treatment with oligonucleotide, and both RNA and protein were isolated. Additionally, the culture media from treated cells was collected for ELISA analysis of apolipoprotein B protein secretion.
Apolipoprotein secreted from into the cultured cell media was measured in the samples treated with 50 and 150 nM of oligonucleotide, using a target protein specific ELISA kit (ALerCHEK Inc., Portland, Me.). Each result represents 3 experiments.
An additional experiment was performed to test the effects of ISIS 271009 (SEQ ID NO: 319), ISIS 281625 (SEQ ID NO: 224) and ISIS 301027 (SEQ ID NO: 262) on human apolipoprotein B mRNA in human primary hepatocytes. Cells were cultured as described herein and treated with 5, 10, 50 or 150 nM of ISIS 271009, ISIS 281625 or ISIS 301027 for a period of 24 hours. The control oligonucleotides ISIS 13650 (SEQ ID NO: 806) and ISIS 113529 (SEQ ID NO: 859) were used at 50 or 150 nM. Human apolipoprotein B mRNA expression was evaluated by real-time PCR as described by other examples herein. Apolipoprotein B protein secreted into the cultured cell media was measured in the samples treated with 50 and 150 nM of oligonucleotide, using a target protein specific ELISA kit (ALerCHEK Inc., Portland, Me.).

[2] = tested on: human apolipoprotein B mRNA; experiment: Inhibition of human apolipoprotein B mRNA levels in HepG2 cells, quantitative real-time PCR; format: cell-based; settings: for % inhibition of apolipoprotein B mRNA levels / % inhibition 37 nM / % inhibition 75 nM / % inhibition 150 nM / % inhibition 300 nM: normalized to untreated control; for % inhibition of apolipoprotein B mRNA levels: average of two experiments; for % inhibition 37 nM / % inhibition 75 nM / % inhibition 150 nM / % inhibition 300 nM: Table 19 dose response; for % INHIB (inhibition of human apolipoprotein B mRNA levels): HepG2 cells treated with 150 nM of compound, quantitative real-time PCR
In short: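 Apolipoprotein B transcript was quantified by one-step TaqMan RT-PCR, normalized to GAPDH or RiboGreen RNA, and expressed as percent inhibition against an untreated-sample standard curve. HepG2 cells were harvested 16-24 h after oligonucleotide exposure, which was delivered with 3.75 μg/mL Lipofectin over 4-7 h at 80% confluency.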

[3] = C57BL/6NTac-TgN(APOB100) transgenic mice (Example 47): liver enzyme, cholesterol, LDL-cholesterol and triglyceride levels; format: in vivo, mouse; settings: C57BL/6NTac-TgN(APOB100) mice, 25 mg/kg i.p. twice a week, eight weeks; for AST and ALT levels: normal levels ~300 IU/L
Procedure: (§1) C57BL/6NTac-TgN(APOB100) mice were divided into two groups—one group receiving oligonucleotide treatment and control animals receiving saline treatment. After overnight fasting, mice were dosed intraperitoneally twice a week with saline or 25 mg/kg ISIS 281625 (SEQ ID No: 224) or ISIS 301012 (SEQ ID No: 247) for eight weeks. At study termination and forty eight hours after the final injections, animals were sacrificed and evaluated for target mRNA levels in liver, cholesterol and triglyceride levels, and liver enzyme levels. In addition, the endogenous mouse apolipoprotein B levels in liver were measured to evaluate any effects of these antisense oligonucletides targeted to the human apolipoprotein B.

[4] = tested on: human apolipoprotein B mRNA; experiment: C57BL/6NTac-TgN(APOB100) transgenic mice, 8 weeks (Example 47): human apolipoprotein B mRNA in liver; format: in vivo, human transgene in mouse; settings: C57BL/6NTac-TgN(APOB100) mice, 25 mg/kg i.p. twice a week, eight weeks; for mRNA % control, human mRNA: liver
Procedure: as §1

[5] = HepG2 cells, 12.5 nM oligonucleotide
[6] = HepG2 cells, 37 nM oligonucleotide
[7] = HepG2 cells, 75 nM oligonucleotide
[8] = HepG2 cells, 150 nM oligonucleotide
[9] = HepG2 cells, 300 nM oligonucleotide
[10] = 150 nM, 24 hours, "+" = increased

## 113529 (antisense e[5mC]*eT*e[5mC]*eT*eT*dA*d[5mC]*dT*dG*dT*dG*d[5mC]*dT*dG*dT*eG*eG*eA*e[5mC]*eA) [compound 113529]
[1]; 150 nM, 24 hours
  % Change in apolipoprotein B protein secretion: +6%
[1]; 150 nM, 48 hours
  % Change in apolipoprotein B protein secretion: +4%

## 271009 (antisense eG*e[5mC]*e[5mC]*eT*e[5mC]*dA*dG*dT*d[5mC]*dT*dG*d[5mC]*dT*dT*d[5mC]*eG*e[5mC]*eG*e[5mC]*e[5mC]) [compound 271009]
[2]; [5]
  % inhibition of apolipoprotein B mRNA levels: 67%
[2]; [6]
  % inhibition of apolipoprotein B mRNA levels: 86%
[2]; [7]
  % inhibition of apolipoprotein B mRNA levels: 92%
[2]; [8]
  % inhibition of apolipoprotein B mRNA levels: 94%
[2]; [9]
  % inhibition of apolipoprotein B mRNA levels: 95%
[2]; Table 12, HepG2 cells, 150 nM, averages from two experiments
  % INHIB: 75%
[2]; HepG2 cells
  % inhibition 37 nM: 82%
  % inhibition 75 nM: 91%
  % inhibition 300 nM: 96%
[2]; HepG2 cells, 150 nM
  % inhibition 150 nM: 94%

## 281625 (antisense eA*eG*eG*eT*eT*dA*d[5mC]*d[5mC]*dA*dG*d[5mC]*d[5mC]*dA*d[5mC]*dA*eT*eG*e[5mC]*eA*eG) [compound 281625]
[3]
  Lipoproteins CHOL: 152.0 mg/dL
  Lipoproteins HDL: 84.6 mg/dL
  Lipoproteins LDL: 49.8 mg/dL
  Lipoproteins TRIG: 171.1 mg/dL
  Liver Enzymes ALT: 363.8 IU/L
  Liver Enzymes AST: 265.8 IU/L
[4]
  mRNA % control, human mRNA: 45.2 % control
[2]; averages from two experiments
  % INHIB (inhibition of human apolipoprotein B mRNA levels): 94%
[2]; [5]
  % inhibition of apolipoprotein B mRNA levels: 44%
[2]; [6]
  % inhibition of apolipoprotein B mRNA levels: 66%
[2]; [7]
  % inhibition of apolipoprotein B mRNA levels: 83%
[2]; [8]
  % inhibition of apolipoprotein B mRNA levels: 85%
[2]; [9]
  % inhibition of apolipoprotein B mRNA levels: 94%
[2]; HepG2 cells
  % inhibition 37 nM: 62%
  % inhibition 75 nM: 76%
  % inhibition 300 nM: 94%
[2]; HepG2 cells, 150 nM
  % inhibition 150 nM: 84%

## 301012 (eG*e[5mC]*e[5mC]*eT*e[5mC]*dA*dG*dT*d[5mC]*dT*dG*d[5mC]*dT*dT*d[5mC]*eG*e[5mC]*eA*e[5mC]*e[5mC]) [compound 301012]
[3]
  Lipoproteins CHOL: 145.1 mg/dL
  Lipoproteins HDL: 98.6 mg/dL
  Lipoproteins LDL: 36.6 mg/dL
  Lipoproteins TRIG: 157.8 mg/dL
  Liver Enzymes ALT: 137.4 IU/L
  Liver Enzymes AST: 208.4 IU/L
[4]
  mRNA % control, human mRNA: 23.7 % control
[1]; 150 nM, 24 hours
  % Change in apolipoprotein B protein secretion: −57%
[1]; 150 nM, 48 hours
  % Change in apolipoprotein B protein secretion: −75%
[2]; averages from two experiments
  % INHIB (inhibition of human apolipoprotein B mRNA levels): 87%
[2]; [5]
  % inhibition of apolipoprotein B mRNA levels: 63%
[2]; [6]
  % inhibition of apolipoprotein B mRNA levels: 79%
[2]; [7]
  % inhibition of apolipoprotein B mRNA levels: 90%
[2]; [8]
  % inhibition of apolipoprotein B mRNA levels: 92%
[2]; [9]
  % inhibition of apolipoprotein B mRNA levels: 95%
[2]; HepG2 cells, 10 nM, 24 hour (Table 41)
  % Change in apolipoprotein B mRNA expression: −51%
[2]; HepG2 cells, 50 nM, 24 hour (Table 40)
  % Change in apolipoprotein B mRNA expression: −44%
[2]; HepG2 cells, 50 nM, 24 hour (Table 41)
  % Change in apolipoprotein B mRNA expression: −72%
[2]; HepG2 cells, 150 nM, 24 hour (Table 40)
  % Change in apolipoprotein B mRNA expression: −75%
[2]; HepG2 cells, 150 nM, 24 hour (Table 41)
  % Change in apolipoprotein B mRNA expression: −92%

## 301027 (eG*e[5mC]*eT*e[5mC]*eA*d[5mC]*dT*dG*dT*dA*dT*dG*dG*dT*dT*eT*eT*eA*eT*e[5mC]; antisense) [compound 301027]
[2]; averages from two experiments
  % INHIB (inhibition of human apolipoprotein B mRNA levels): 89%
[2]; HepG2 cells
  % inhibition 37 nM: 80%
  % inhibition 75 nM: 90%
  % inhibition 300 nM: 96%
[2]; HepG2 cells, 150 nM
  % inhibition 150 nM: 95%

## ISIS 281625: SEQ ID NO: 224, 2′-MOE gapmer targeted to human apolipoprotein B (antisense eA*eG*eG*eT*eT*dA*d[5mC]*d[5mC]*dA*dG*d[5mC]*d[5mC]*dA*d[5mC]*dA*eT*eG*e[5mC]*eA*eG)
[3]
  Cholesterol levels relative to saline treatment: slightly increased
  triglyceride levels relative to saline treatment: slightly decreased
  AST and ALT levels: increased, yet did not exceed normal levels
[4]
  mRNA levels of the human apolipoprotein B in liver: markedly decreased
[1]; 50 nM, 24 hours
  % Inhibition of apolipoprotein B protein secretion: 18%
[1]; [10]
  % Inhibition of apolipoprotein B protein secretion: 18%

## ISIS 301012: SEQ ID NO: 247, antisense oligonucleotide targeted to human apolipoprotein B (antisense GCCTCAGTCTGCTTCGCACC; chemistry not given here)
[3]
  Cholesterol levels relative to saline treatment: slightly increased
  triglyceride levels relative to saline treatment: slightly decreased
  AST and ALT levels: increased, yet did not exceed normal levels
[4]
  mRNA levels of the human apolipoprotein B in liver: markedly decreased

## ISIS 301027: SEQ ID NO: 262, 2′-MOE gapmer targeted to human apolipoprotein B (antisense eG*e[5mC]*eT*e[5mC]*eA*d[5mC]*dT*dG*dT*dA*dT*dG*dG*dT*dT*eT*eT*eA*eT*e[5mC])
[1]; 50 nM, 24 hours
  % Inhibition of apolipoprotein B protein secretion: 21%
[1]; [10]
  % Inhibition of apolipoprotein B protein secretion: 32%
[1]; 50 and 150 nM
  secretion of apolipoprotein B protein from cells (ELISA): inhibit the secretion of apolipoprotein B protein from cells in a dose-dependent manner
